This is an account of results in patent US7511074B2, “Tetrafluorobenzyl derivatives and pharmaceutical composition for preventing and treating acute and chronic neurodegenerative diseases in central nervous system containing the same” (AmKor Pharma, Inc., priority 2002, dated 2009).

For assay [1], the system named is Mouse cortical cell cultures. In words: FeCl2-induced free radical neurotoxicity in mixed cortical cell cultures (LDH assay). The class given is cell-based. As to conditions: continuous 50 μM FeCl2; LDH 24 hr later. As to the method:
(§1) Mouse cortical cell cultures (DIV 12-14) were exposed to continuously to 50 μM Fe^2+, alone or with inclusion of 0.1-100 μM 2-Hydroxy-TTBA (●) or trolox (◯), a membrane-permeable form of vitamin E). Neuronal death was analyzed 24 hr later by measuring levels of LDH released into the bathing medium, mean ±SEM (n=9-12 culture wells per condition), scaled to mean LDH efflux value 24 hr after sham wash (=0) and continuous exposure to 500 μM NMDA (=100). *, Significant difference from the vehicle control, p<0.05 using ANOVA and Student-Neuman-Keuls' test.
as §1, with “alone (♦)” for “alone”, “1-30” for “0.1-100”, “2-Hydroxy-TTS (●), 2-Hydroxy-TTA (◯), 2-Chloro-TTP (▾), 2-Ethan-TTBA (∇), 2-Propan-TTBA (▪),” for “2-Hydroxy-TTBA (●)”, “2-Cyclohexan-TTBA (□).” for “trolox (◯), a membrane-permeable form of vitamin E).”
For mixed neuron-glia culture, mouse cerebral cortices were removed from brains of the 14-16 day-old-fetal mice (E14-16), gently triturated and plated on 24 well plates (2×10^5 cells/plate) precoated with 100 μg/ml poly-D-lysine and 4 μg/ml laminine. Cultures were maintained at 37° C. in a humidified 5% CO2 atmosphere. Plating media consist of Eagles minimal essential media (MEM, Earles salts, supplied glutamine-free) supplemented with 5% horse serum, 5% fetal bovine serum, 26.5 mM bicarbonate, 2 mM glutamine, and 21 mM glucose.
After 7-8 days in vitro (DIV 7-8), 10 μM cytosine arabinofuranoside (Ara-C) was included to halt overgrowth of glia. The drug treatment was carried on DIV 12-15 cortical cell culture. Overall neuronal cell injury was assessed by measuring amount of lactate dehydrogenase (LDH) released into the bathing medium 24 hr after neurotoxic insults as previously described [Koh and Choi, J Neurosci Methods 20:83-90, 1987].
Mixed cortical cell cultures (DIV 13-15) were continuously exposed to 50 μM FeCl2, which produces hydroxyl radical via a Fenton reaction, alone or with inclusion of 2-Hydroxy-TTBA, 2-Hydroxy-TTA, 2-Hydroxy-TTS, 2-Chloro-TTP, 2-Ethan-TTBA, 2-Propan-TTBA, 2-Cyclohexan-TTBA or trolox (a vitamin E analogue) at indicated doses. Neuronal cell death was analyzed 24 hr later by LDH assay as described above. *, Significant difference from the vehicle control (FeCl2), p<0.05 using ANOVA and Student-Neuman-Keuls' test.

The subject of assay [2] is Sprague-Dawley rats, occlusion of middle cerebral artery. As to the kind of experiment: Transient focal cerebral ischemia (60 min MCAO), infarct volume. The format is in vivo, rat. As to the method:
Adult rats received transient cerebral ischemia by occluding right middle cerebral artery and both common carotid arteries for 60 min with intraperitoneal injections of vehicle or 50 mg/kg 2-Hydroxy-TTBA at 5 min, 30 min, or 1 hr after reperfusion. Infarct volume was analyzed 24 hr later after staining brain slices with 2% 2,3,5-triphenyltetrazolium chloride (TTC), mean ±SEM (n=8-11 rats per each condition). *, Significant difference from the vehicle control, p<0.05 using ANOVA and Student-Neuman-Keuls' test.
Adult rats received transient cerebral ischemia by occluding right middle cerebral artery and both common carotid arteries for 60 min with intraperitoneal injections of vehicle (control) or 50 or 100 mg/kg 2-Hydroxy-TTBA at 5 min after reperfusion. Infarct volume was analyzed 24 hr later after staining brain slices with 2% 2,3,5-triphenyltetrazolium chloride (TTC), mean ±SEM (n=7-8 rats per each condition). *, Significant difference from the vehicle control, p<0.05 using ANOVA and Student-Neuman-Keuls' test.
Adult rats received transient cerebral ischemia by occluding right middle cerebral artery and both common carotid arteries for 60 min, with intravenous injections of vehicle (control) or 5 mg/kg 2-Hydroxy-TTBA at 30 min after occlusion or 5 min, 30 min, 1 hr, 2 hr, or 4 hr after reperfusion. Infarct volume was analyzed 24 hr later, mean ±SEM (n=8-11 rats per each condition). *, Significant difference from the vehicle control, p<0.05 using ANOVA and Student-Neuman-Keuls' test.
Adult rats received transient cerebral ischemia by occluding right middle cerebral artery and both common carotid arteries for 60 min, with intravenous injections of vehicle (control) or 1, 2.5, 5, 10 or 20 mg/kg 2-Hydroxy-TTBA at 5 min after reperfusion. Infarct volume was analyzed 24 hr later, mean ±SEM (n=8-10 rats per each condition). *, Significant difference from the vehicle control, p<0.05 using ANOVA and Student-Neuman-Keuls' test.
Adult rats received transient cerebral ischemia by occluding right middle cerebral artery and both common carotid arteries for 60 min, with oral administrations of vehicle (control) or 10 or 20 mg/kg 2-Hydroxy-TTBA at 5 min after reperfusion. Infarct volume was analyzed 24 hr later, mean ±SEM (n=8-10 rats per each condition). *, Significant difference from the vehicle control, p<0.05 using ANOVA and Student-Neuman-Keuls' test.
Sprague-Dawley rats were anesthetized with chloral hydrate, and subjected to focal cerebral ischemia by occlusion of middle cerebral artery (MCAO) as previously described [Tamura et al., J. Cerebr. Blood Flow Metab. 1:53-60 (1981)]. Both common carotid arteries (CCAs) were exposed and right middle cerebral artery (rMCA) was exposed under the surgical microscope by making a 3 mm diameter craniotomy rostral to the foramen ovale. CCAs and rMCA were occluded with microclips. The clips were released 60 min later and restoration of blood flow in rMCA was observed under the microscope
Animals received MCAO for 60 min, alone or with administration of 2-Hydroxy-TTBA (50 mg/kg, i.p.) at indicated points of time after reperfusion. Saline was injected as a control. Animals were euthanized 24 hr later and brains removed and sectioned coronally into seven 2-mm slices in a brain matrix. […] The infarction area, outline in white, was measured (TINA image analysis system) and infarction volume was calculated by summing the infarct volume showing white of sequential 2-mm-thick section, mean ±SEM (n=8-12 rats/condition) (FIG. 8a). […]

Setting [3] is: intravenous, 5 min after reperfusion, 60 min MCAO.

Where only a bound is given, the exact number is not on record here.

`O=C(O)c1cc(NCc2c(F)c(F)c(C(F)(F)F)c(F)c2F)ccc1O` [2-Hydroxy-TTBA, 2-hydroxy-5-(2,3,5,6-tetrafluoro-4-trifluoromethylbenzylamino)benzoic acid]: in assay [1], the “prevention of FeCl2-induced free radical neurotoxicity” value is reported as “prevented FeCl2-induced free radical neurotoxicity in a dose-dependent manner” and the “strength relative to trolox in preventing free radical neurotoxicity” value stood at 30 fold. Further, the “time after reperfusion up to which delayed injection significantly attenuated infarct volume” value in assay [2] (5 mg/kg intravenous, 60 min MCAO, infarct volume 24 hr later) is “up to 4 hr”. In addition, the “time after reperfusion up to which delayed administration significantly reduced infarct volume” value in assay [2] (50 mg/kg i.p., 60 min MCAO, infarct volume 24 hr later) is reported as “up to 1 hr”. Moreover, the “infarct volume after oral administration” value in assay [2] (10 or 20 mg/kg p.o. at 5 min after reperfusion, 24 hr after 60 min MCAO) was “reduced infarct volume”. For the same molecule, in assay [2] (setting [3]), the “intravenous doses at which protective effects were observed” value is listed as “higher than 2.5 mg/kg” and the “lowest intravenous dose attenuating infarct volume” value was at least 1 mg/kg.
